What was measured:
Assay type in all cases: cell-based, human
[1] = system: Raji B lymphoblastoid cell; experiment: MTT anti-proliferative assay, Raji; conditions: for IC50: MTT, 48 h, read-out: IC50 Raji
Outline: (§1)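 Anti-proliferative effect is measured with the MTT assay, which reports inhibition of net cell growth. Cells come from ATCC, are maintained in DMEM with FBS and are seeded into 96-well plates before treatment.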

[2] = system: MCF-10A normal breast cell; experiment: MTT assay, MCF-10A normal cells; conditions: 48 h
Outline: as §1

AGS gastric cancer cell = experiment: MTT anti-proliferative assay, AGS; conditions: for IC50: MTT, 48 h
Outline: as §1

MCF-7 breast cancer cell = experiment: MTT anti-proliferative assay, MCF-7; conditions: MTT, 48 h
Outline: as §1

[3] = system: HeLa cervical cancer cell; experiment: MTT anti-proliferative assay, HeLa; conditions: MTT, 48 h
Outline: as §1

[4] = system: HCT116 colectal cancer cell; experiment: MTT anti-proliferative assay, HCT116; conditions: for IC50: MTT, 48 h, read-out: IC50 HCT-116
Outline: as §1

A549 lung cancer cell = experiment: MTT anti-proliferative assay, A549; conditions: for IC50: MTT, 48 h
Outline: as §1

[5] = system: diffuse large B-cell lymphoma SU-DHL-10 cell; experiment: MTT anti-proliferative assay, SU-DHL-10; conditions: for IC50: MTT, 48 h, read-out: IC50 SU-DHL-10
Outline: as §1

[6] = system: SGC-7901 early differentiation gastric cancer cell; experiment: MTT anti-proliferative assay, SGC-7901; conditions: for IC50: MTT, 48 h
Outline: as §1

[7] = system: BEL-7402 liver cancer cell; experiment: MTT anti-proliferative assay, BEL-7402; conditions: for IC50: MTT, 48 h
Outline: as §1

HepG2 hepatoma cell = experiment: MTT anti-proliferative assay, HepG2; conditions: for IC50: MTT, 48 h, read-out: IC50 HepG-2
Outline: as §1

L-02 normal liver cell = experiment: MTT assay, L-02 normal cells; conditions: 48 h
Outline: as §1

[8] = system: MGC-803 late stage differentiation gastric cancer cell; experiment: MTT anti-proliferative assay, MGC-803; conditions: for IC50: MTT, 48 h
Outline: as §1

IC50 [1]	IC50 (AGS gastric cancer cell)	IC50 (MCF-7 breast cancer cell)	IC50 [3]	IC50 [4]	IC50 (A549 lung cancer cell)	IC50 [5]	IC50 [6]	IC50 [7]	IC50 (HepG2 hepatoma cell)	IC50 [8]	Structure (SMILES)	IC50 [2]	SI (selectivity index), IC50 (L-02)/IC50 (AGS) (AGS gastric cancer cell)	SI (selectivity index), IC50 (L-02)/IC50 (A549) (A549 lung cancer cell)	SI (selectivity index), IC50 (L-02)/IC50 (SGC-7901) [6]	SI (selectivity index), IC50 (L-02)/IC50 (BEL-7402) [7]	SI (selectivity index), IC50 (L-02)/IC50 (HepG-2) (HepG2 hepatoma cell)	IC50 (L-02 normal liver cell)	SI (selectivity index), IC50 (L-02)/IC50 (MGC-803) [8]	SI (selectivity index), IC50 (L-02)/IC50 (HCT-116) [4]	further results
60.5 ± 19.1 µM	6.3 ± 0.4 µM	> 100 µM	> 100 µM	> 100 µM	50.7 ± 7.4 µM	> 100 µM	50.1 ± 5.9 µM	17.4 ± 4.2 µM	26.7 ± 10.1 µM	13.1 ± 3.6 µM	Cc1ccc(/C=C(\C#N)c2ccccc2OC(F)(F)F)cc1 [Compound 1c2d]	> 100 µM	> 15.6	> 1.9	> 1.9	> 5.7	> 3.7	> 100 µM	> 7.6		SI (selectivity index), IC50 (L-02)/IC50 (Raji) [1]: > 1.6
42.4 ± 1.7 µM	16.7 ± 2.3 µM	> 100 µM	> 100 µM	17.2 ± 5.2 µM	> 100 µM	> 100 µM	> 100 µM	> 100 µM	27.9 ± 2.4 µM	19.6 ± 6.7 µM	N#C/C(=C\c1ccc(Br)cc1)c1ccccc1OC(F)(F)F [Compound 1c2c]	> 100 µM	> 2.5				> 1.5	42.2 ± 11.5 µM	> 2.1	> 2.4	
0.37 ± 0.06 µM	7.5 ± 0.4 µM	0.45 ± 0.06 µM	> 100 µM	1 ± 0.1 µM	> 100 µM	2.4 ± 0.1 µM	> 100 µM	0.03 ± 0.01 µM	> 100 µM	0.12 ± 0.03 µM	CCN(CC)c1ccc(/C=C(\C#N)c2cc(OC)c(OC)c(OC)c2)cc1 [Compound 1g2b]	0.05 ± 0.001 µM	> 13.1			> 3333		> 100 µM	> 819	> 96.1	SI (selectivity index), IC50 (L-02)/IC50 (Raji) [1]: > 270; SI (selectivity index), IC50 (L-02)/IC50 (SU-DHL-10) [5]: > 34.0
41.3 ± 5.5 µM	7.6 ± 0.6 µM	> 100 µM	75.8 ± 12.4 µM	8.4 ± 2.4 µM	> 100 µM	> 100 µM	7.8 ± 0.8 µM	10.8 ± 2.3 µM	24.9 ± 7 µM	2.5 ± 1.1 µM	COc1ccc(/C=C(\C#N)c2ccccc2OC(F)(F)F)cc1 [Compound 1c2e]	> 100 µM	> 4.7		> 4.5	> 3.3	> 1.4	36.1 ± 4.8 µM	> 14.2	> 4.2	
> 100 µM	89.8 ± 1 µM	> 100 µM	> 100 µM	30.8 ± 2.9 µM	> 100 µM	> 100 µM	57.2 ± 14.3 µM	> 100 µM	> 100 µM	41.5 ± 2.1 µM	N#C/C(=C\c1cccs1)c1ccc(OC(F)(F)F)cc1 [Compound 1a3b]	> 100 µM	> 2.3	> 1.1	> 1.7		> 1.6	> 100 µM	> 1.7	> 1.8	

Structure (SMILES)	IC50 [1]	IC50 (AGS gastric cancer cell)	IC50 (MCF-7 breast cancer cell)	IC50 [3]	IC50 [4]	IC50 (A549 lung cancer cell)	IC50 [5]	IC50 [6]	IC50 [7]	IC50 (HepG2 hepatoma cell)	IC50 [8]	IC50 [2]	SI (selectivity index), IC50 (L-02)/IC50 (AGS) (AGS gastric cancer cell)	SI (selectivity index), IC50 (L-02)/IC50 (A549) (A549 lung cancer cell)	SI (selectivity index), IC50 (L-02)/IC50 (SGC-7901) [6]	SI (selectivity index), IC50 (L-02)/IC50 (BEL-7402) [7]	SI (selectivity index), IC50 (L-02)/IC50 (HepG-2) (HepG2 hepatoma cell)	IC50 (L-02 normal liver cell)	SI (selectivity index), IC50 (L-02)/IC50 (MGC-803) [8]	SI (selectivity index), IC50 (L-02)/IC50 (HCT-116) [4]	further results
Cc1cc(C)c(/C=C(\C#N)c2ccc(C(F)(F)F)cc2)c(C)c1 [Compound 1f2r]	> 100 µM	> 100 µM	> 100 µM	> 100 µM	> 100 µM	> 100 µM	> 100 µM	> 100 µM	> 100 µM	> 100 µM	> 100 µM	> 100 µM						> 100 µM			
N#C/C(=C\c1ccc(C(F)(F)F)cc1)c1ccc(C(F)(F)F)cc1 [Compound 1f2k]	77.4 ± 13.6 µM	53.2 ± 13.2 µM	> 100 µM	> 100 µM	> 100 µM	47.8 ± 4 µM	> 100 µM	> 100 µM	> 100 µM	> 100 µM	> 100 µM	> 100 µM	> 1.8	> 2.0				> 100 µM			

— PMC11071649, “Synthesis and Selective Anticancer Activity Evaluation of 2-phenylacrylonitrile Derivatives as Tubulin Inhibitors” (Current Medicinal Chemistry, 2024)
